The supplement of paper PMC10307832

Legend:
Test in all cases: relative viability (nuclei count vs DMSO), 5 days (fraction); higher = more cells survive
[1] = compound: Cn1cc(-c2cnn3c(N)c(Br)c([C@@H]4CCCNC4)nc23)cn1 + CCNC(=O)c1noc(-c2cc(C(C)C)c(O)cc2O)c1-c1ccc(CN2CCOCC2)cc1 [Luminespib] (partner 0.01 µM)
Summary of the method: (§1)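 One day after seeding in 1536-well plates, lung cancer cell lines were dosed by pin tool. Dosing was either single-drug or a fixed anchor-drug dose plus five library-drug doses (not always all listed) in √10 steps. After 5 days, nuclei were stained in one fix-and-stain step and counted on 4× images, and relative viability is the nuclei count of treated wells over that of vehicle wells, given as the median of duplicate plates.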

[2] = compound: Cn1cc(-c2cnn3c(N)c(Br)c([C@@H]4CCCNC4)nc23)cn1 + COc1cccc2cc(-c3nc([C@H]4CC[C@H](C(=O)O)CC4)n4ncnc(N)c34)[nH]c12 [OSI-027] (partner 0.5 µM)
Summary of the method: as §1

[3] = compound: Cn1cc(-c2cnn3c(N)c(Br)c([C@@H]4CCCNC4)nc23)cn1 + CS(=O)(=O)CCNCc1ccc(-c2ccc3ncnc(Nc4ccc(OCc5cccc(F)c5)c(Cl)c4)c3c2)o1 [Lapatinib] (partner 2 µM)
Summary of the method: as §1

[4] = compound: Cn1cc(-c2cnn3c(N)c(Br)c([C@@H]4CCCNC4)nc23)cn1 + C[C@]1(O)C[C@@H](c2nc(-c3ccc4ccc(-c5ccccc5)nc4c3)c3c(N)nccn32)C1 [Linsitinib] (partner 1 µM)
Summary of the method: as §1

Cell Line | relative viability ([1]; first compound 0.05 µM) | relative viability ([1]; first compound 0.1581 µM) | relative viability ([1]; first compound 0.5 µM) | relative viability ([1]; first compound 1.581 µM) | relative viability ([1]; first compound 5 µM) | relative viability ([2]; first compound 0.05 µM) | relative viability ([2]; first compound 0.1581 µM) | relative viability ([2]; first compound 0.5 µM) | relative viability ([2]; first compound 1.581 µM) | relative viability ([2]; first compound 5 µM) | relative viability ([3]; first compound 0.05 µM) | relative viability ([3]; first compound 0.1581 µM) | relative viability ([3]; first compound 0.5 µM) | relative viability ([3]; first compound 1.581 µM) | relative viability ([3]; first compound 5 µM) | relative viability ([4]; first compound 0.05 µM) | relative viability ([4]; first compound 0.1581 µM) | relative viability ([4]; first compound 0.5 µM) | relative viability ([4]; first compound 1.581 µM) | relative viability ([4]; first compound 5 µM)
NCI-H2087 | 0.143 | 0.168 | 0.192 | 0.151 | 0.175 | 0.498 | 0.696 | 0.641 | 0.454 | 0.503 | 1.29 | 1.17 | 0.996 | 1.21 | 0.985 | 1.1 | 1.07 | 0.998 | 1.04 | 0.857
NCI-H2228 | 0.138 | 0.132 | 0.212 | 0.124 | 0.112 | 0.689 | 0.674 | 0.592 | 0.458 | 0.315 | 1.54 | 1.14 | 1.2 | 0.493 | 0.378 | 0.975 | 0.895 | 0.628 | 0.586 | 0.459
NCI-H727 | 0.345 | 0.412 | 0.315 | 0.354 | 0.343 | 0.551 | 0.761 | 0.719 | 0.711 | 0.429 | 0.867 | 1.05 | 0.813 | 0.88 | 0.426 | 0.189 | 0.261 | 0.235 | 0.289 | 0.236
NCI-H650 | 0.807 | 0.872 | 0.749 | 0.811 | 0.345 | 0.571 | 0.503 | 0.54 | 0.476 | 0.485 | 0.802 | 0.831 | 1.03 | 0.652 | 0.503 | 0.808 | 0.775 | 0.846 | 0.795 | 0.657
NCI-H520 | 0.207 | 0.206 | 0.217 | 0.219 | 0.221 | 0.214 | 0.215 | 0.269 | 0.265 | 0.288 | 0.819 | 0.685 | 0.649 | 0.705 | 0.707 | 0.991 | 0.939 | 0.931 | 0.733 | 0.561
EBC-1 | – | – | – | – | – | – | – | – | – | – | 0.207 | 0.183 | 0.24 | 0.223 | 0.192 | 0.937 | 1.09 | 0.933 | 0.884 | 0.799
NCI-H661 | 0.953 | 0.953 | 0.991 | 0.829 | 0.729 | 0.711 | 0.789 | 0.718 | 0.513 | 0.511 | 0.441 | 0.503 | 0.518 | 0.48 | 0.324 | 0.557 | 0.592 | 0.579 | 0.479 | 0.314
NCI-H1299 | – | – | – | – | – | – | – | – | – | – | 0.982 | 0.976 | 0.923 | 0.767 | 0.757 | 1.02 | 1.04 | 0.959 | 0.833 | 0.626
LK-2 | 0.213 | 0.206 | 0.182 | – | 0.169 | 0.146 | 0.162 | 0.172 | 0.179 | 0.168 | 1.01 | 0.878 | 0.823 | 0.757 | 0.605 | 0.548 | 0.446 | 0.51 | 0.369 | 0.317
NCI-H1993 | 1.03 | 0.887 | 0.543 | 0.666 | 0.567 | 0.603 | 0.551 | 0.389 | 0.55 | 0.54 | 0.634 | 0.858 | – | 0.739 | 0.759 | 0.718 | 0.69 | – | 0.672 | 0.739
NCI-H838 | 0.346 | 0.252 | 0.261 | 0.225 | 0.222 | 0.386 | 0.416 | 0.371 | 0.367 | 0.338 | 0.955 | 1.15 | 0.964 | 0.667 | 0.775 | 0.984 | 1.09 | 0.987 | 0.824 | 0.962
NCI-H2170 | 0.837 | 0.561 | 0.799 | 0.931 | 0.422 | 0.759 | 0.801 | 0.687 | 0.649 | 0.653 | 0.26 | 0.252 | 0.289 | 0.282 | 0.286 | – | – | – | – | –
NCI-H1648 | – | – | – | – | – | 0.249 | 0.235 | – | 0.258 | 0.261 | – | – | – | – | – | – | – | – | – | –
LCLC-103H | 1.05 | 1.02 | 0.895 | 0.699 | 0.816 | 0.433 | 0.43 | 0.516 | 0.405 | 0.389 | – | – | – | – | – | 0.978 | 1.18 | 1.15 | 1.06 | 0.915
NCI-H441 | 0.373 | 0.348 | 0.31 | 0.254 | 0.302 | 0.614 | 0.814 | 0.821 | 0.565 | 0.609 | – | – | – | – | – | 0.802 | 0.346 | 0.461 | 0.56 | 0.563
NCI-H1650 | – | 0.146 | 0.241 | 0.194 | 0.186 | – | 0.634 | 0.726 | 0.467 | 0.345 | 0.854 | 0.882 | 0.711 | 0.64 | 0.428 | – | – | – | – | –
SW 900 | 0.184 | 0.176 | 0.188 | 0.189 | 0.165 | 0.597 | 0.612 | 0.541 | 0.453 | 0.26 | – | – | – | – | – | – | – | – | – | –
IA-LM | – | – | – | – | – | – | – | – | – | – | 0.927 | 0.624 | 0.581 | 0.44 | 0.225 | 0.666 | 0.867 | 0.653 | 0.544 | 0.37
HCC-366 | – | – | – | – | – | 1.03 | 1.19 | 0.945 | 0.959 | 0.952 | 1.05 | 1.32 | 0.66 | 0.649 | 0.382 | 0.71 | 0.739 | 0.483 | 0.521 | 0.18
NCI-H522 | 1.23 | 1.26 | 1.17 | 1 | 0.87 | 0.344 | 0.685 | 0.748 | 0.681 | 0.661 | – | – | – | – | – | – | – | – | – | –
HCC-78 | – | – | – | – | – | – | 0.347 | 0.345 | 0.354 | 0.517 | 0.841 | 0.92 | 0.786 | 0.641 | 0.245 | 0.507 | 0.519 | 0.524 | 0.604 | 0.385
